# Measurements as given in US12157746B2, “Tetrahydro-1H-pyrazino[2,1-a]isoindolylquinoline compounds for the treatment of autoimmune disease” (F. HOFFMANN-LA ROCHE AG, priority 2018, dated 2024).
# Molecular target: T1, human TLR8 (Homo sapiens, UniProt Q9NR97)
# T1 sequence (Q9NR97 27-1041): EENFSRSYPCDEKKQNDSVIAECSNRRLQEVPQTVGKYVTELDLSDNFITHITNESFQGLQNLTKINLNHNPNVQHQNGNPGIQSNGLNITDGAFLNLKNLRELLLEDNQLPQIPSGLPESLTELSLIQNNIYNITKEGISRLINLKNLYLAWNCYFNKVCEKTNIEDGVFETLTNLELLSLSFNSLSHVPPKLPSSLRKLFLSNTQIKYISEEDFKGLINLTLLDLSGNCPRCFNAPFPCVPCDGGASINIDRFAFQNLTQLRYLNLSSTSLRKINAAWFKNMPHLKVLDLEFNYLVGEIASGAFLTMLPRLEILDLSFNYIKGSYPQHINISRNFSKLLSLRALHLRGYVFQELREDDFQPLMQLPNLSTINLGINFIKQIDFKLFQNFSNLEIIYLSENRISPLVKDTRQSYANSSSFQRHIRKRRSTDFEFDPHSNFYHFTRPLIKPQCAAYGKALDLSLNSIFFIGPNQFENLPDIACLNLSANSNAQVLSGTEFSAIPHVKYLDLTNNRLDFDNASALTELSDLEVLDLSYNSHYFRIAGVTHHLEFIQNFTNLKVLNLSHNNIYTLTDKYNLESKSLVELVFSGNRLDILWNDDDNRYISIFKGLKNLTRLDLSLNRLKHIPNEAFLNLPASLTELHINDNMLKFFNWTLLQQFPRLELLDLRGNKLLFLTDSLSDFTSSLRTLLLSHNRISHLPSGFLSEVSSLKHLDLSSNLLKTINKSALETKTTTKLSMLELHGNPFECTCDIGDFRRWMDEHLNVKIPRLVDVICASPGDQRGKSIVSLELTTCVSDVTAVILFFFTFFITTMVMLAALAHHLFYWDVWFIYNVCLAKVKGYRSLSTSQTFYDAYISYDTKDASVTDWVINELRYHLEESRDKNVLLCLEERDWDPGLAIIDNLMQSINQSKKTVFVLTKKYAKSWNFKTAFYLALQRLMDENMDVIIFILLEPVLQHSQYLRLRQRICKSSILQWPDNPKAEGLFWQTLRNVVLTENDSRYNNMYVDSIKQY
# Assay: HEK293-Blue-hTLR-8 cells assay
# Type: cell-based
# Details: HEK293-Blue-hTLR8 cells, R848 stimulation, 20 hrs, SEAP reporter; read-out: HEK/hTLR8 IC50
# How it was run: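 Antagonism read out in HEK293-Blue-hTLR8 cells carrying an NF-κB/AP-1-driven SEAP reporter, stimulated with R848 (10 μL of 60 uM stock added) alongside serially diluted compound (1% DMSO), 20 h at 37° C. Supernatant SEAP measured with QUANTI-Blue after 2 h at 37° C, absorbance at 620-655 nm.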
row,SMILES,IC50 [nM]
1,"C[C@@H]1CN(c2ccc(C#N)c3ncccc23)C[C@@H]2c3ccc(N4CCNCC4)cc3CN12 [Example 1, 5-[(4R,10bS)-4-methyl-8-piperazin-1-yl-3,4,6,10b-tetrahydro-1H-pyrazino[2,1-a]isoindol-2-yl]quinoline-8-carbonitrile]",< 3.2
2,"C[C@@H]1CN(c2ccc(C#N)c3ncccc23)C[C@@H]2c3ccc(N[C@@H]4CCCNC4)cc3CN12 [Example 65, 5-[(4R,10bS)-4-methyl-8-[[(3R)-3-piperidyl]amino]-3,4,6,10b-tetrahydro-1H-pyrazino[2,1-a]isoindol-2-yl]quinoline-8-carbonitrile]",< 3.2
3,"CO[C@H]1CNC[C@H]1Nc1ccc2c(c1)CN1[C@H](C)CN(c3ccc(C#N)c4ncccc34)C[C@H]21 [Example 61, 5-[(4R,10bS)-8-[[(3R,4S)-4-methoxypyrrolidin-3-yl]amino]-4-methyl-3,4,6,10b-tetrahydro-1H-pyrazino[2,1-a]isoindol-2-yl]quinoline-8-carbonitrile]",< 3.2
4,"C[C@@H]1CN(c2ccc(C#N)c3ncccc23)C[C@@H]2c3ccc(C(=O)N4CCC(C)(N)CC4)cc3CN12 [Example 88, 5-[(4R,10bS)-8-(4-amino-4-methyl-piperidine-1-carbonyl)-4-methyl-3,4,6,10b-tetrahydro-1H-pyrazino[2,1-a]isoindol-2-yl]quinoline-8-carbonitrile]",0.7
5,"C[C@@H]1CN(c2ccc(C#N)c3ncccc23)C[C@@H]2c3ccc(NCC4COCCN4)cc3CN12 (stereo partly drawn) [Example 57, 5-[(4R,10bS)-4-methyl-8-(morpholin-3-ylmethylamino)-3,4,6,10b-tetrahydro-1H-pyrazino[2,1-a]isoindol-2-yl]quinoline-8-carbonitrile]",< 3.2
6,"CO[C@H]1CNC[C@@H]1Nc1ccc2c(c1)CN1[C@H](C)CN(c3ccc(C#N)c4ncccc34)C[C@H]21 [Example 62, 5-[(4R,10bS)-8-[[(3S,4S)-4-methoxypyrrolidin-3-yl]amino]-4-methyl-3,4,6,10b-tetrahydro-1H-pyrazino[2,1-a]isoindol-2-yl]quinoline-8-carbonitrile]",< 3.2
7,"C[C@@H]1CN(c2ccc(C#N)c3ncccc23)C[C@@H]2c3cc(F)c(N4CC5(CNC5)C4)cc3CN12 [Example 84, 5-[(4R,10bS)-8-(2,6-diazaspiro[3.3]heptan-2-yl)-9-fluoro-4-methyl-3,4,6,10b-tetrahydro-1H-pyrazino[2,1-a]isoindol-2-yl]quinoline-8-carbonitrile]",1.3

# Next, values leading:
row,IC50 [nM],SMILES
1,1,"C[C@@H]1CN(c2ccc(C#N)c3ncccc23)C[C@@H]2c3cc(F)c(N4C[C@H](N)[C@@](C)(O)C4)cc3CN12 [Example 83, 5-[(4R,10bS)-8-[(3S,4S)-4-amino-3-hydroxy-3-methyl-pyrrolidin-1-yl]-9-fluoro-4-methyl-3,4,6,10b-tetrahydro-1H-pyrazino[2,1-a]isoindol-2-yl]quinoline-8-carbonitrile]"
2,6.2,"CO[C@@H]1CNC[C@H]1Nc1cc2c(cc1C)[C@H]1CN(c3ccc(C#N)c4ncccc34)C[C@@H](C)N1C2 [Example 63, 5-[(4R,10bS)-8-[[(3R,4R)-4-methoxypyrrolidin-3-yl]amino]-4,9-dimethyl-3,4,6,10b-tetrahydro-1H-pyrazino[2,1-a]isoindol-2-yl]quinoline-8-carbonitrile]"
3,< 3.2,"C[C@@H]1CN(c2ccc(C#N)c3ncccc23)C[C@@H]2c3ccc(N[C@@H]4CNCCOC4)cc3CN12 [Example 56A, 5-[(4R,10bS)-4-methyl-8-[[(6R)-1,4-oxazepan-6-yl]amino]-3,4,6,10b-tetrahydro-1H-pyrazino[2,1-a]isoindol-2-yl]quinoline-8-carbonitrile]"
4,< 3.2,"CO[C@H]1CNC[C@@H]1N(C)c1ccc2c(c1)CN1[C@H](C)CN(c3ccc(C#N)c4ncccc34)C[C@H]21 [Example 64, 5-[(4R,10bS)-8-[[(3S,4S)-4-methoxypyrrolidin-3-yl]-methyl-amino]-4-methyl-3,4,6,10b-tetrahydro-1H-pyrazino[2,1-a]isoindol-2-yl]quinoline-8-carbonitrile]"
